{"source": "paper PMC2865140", "about": "(Microbiology (Reading, England), 2009)", "key": {"[1]": {"target": "AccD5 (carboxyltransferase beta subunit of ACCase 5) (Mycobacterium tuberculosis, UniProt P9WQH7)", "sequence (P96890 2-600)": "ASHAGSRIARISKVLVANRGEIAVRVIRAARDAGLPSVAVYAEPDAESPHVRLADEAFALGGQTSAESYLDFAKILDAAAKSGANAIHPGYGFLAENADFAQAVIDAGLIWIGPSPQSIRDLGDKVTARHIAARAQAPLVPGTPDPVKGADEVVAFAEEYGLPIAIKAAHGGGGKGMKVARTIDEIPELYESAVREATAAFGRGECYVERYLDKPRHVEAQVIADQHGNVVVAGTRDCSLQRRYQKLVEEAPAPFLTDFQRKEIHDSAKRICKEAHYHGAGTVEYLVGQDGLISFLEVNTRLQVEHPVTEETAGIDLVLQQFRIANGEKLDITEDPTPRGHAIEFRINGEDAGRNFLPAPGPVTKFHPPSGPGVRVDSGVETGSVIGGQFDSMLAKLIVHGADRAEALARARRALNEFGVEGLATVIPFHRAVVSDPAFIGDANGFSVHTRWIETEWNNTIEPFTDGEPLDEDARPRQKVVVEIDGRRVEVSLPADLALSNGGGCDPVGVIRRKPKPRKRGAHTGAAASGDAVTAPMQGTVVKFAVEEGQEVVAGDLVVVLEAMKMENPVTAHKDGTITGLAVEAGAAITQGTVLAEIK", "sequence (P96886 whole entry, further chain)": "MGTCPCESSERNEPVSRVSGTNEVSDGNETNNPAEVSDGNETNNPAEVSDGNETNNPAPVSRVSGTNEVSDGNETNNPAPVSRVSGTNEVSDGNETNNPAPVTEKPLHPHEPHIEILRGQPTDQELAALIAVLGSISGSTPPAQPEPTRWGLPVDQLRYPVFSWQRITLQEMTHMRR", "sequence (P9WQH7 whole entry)": "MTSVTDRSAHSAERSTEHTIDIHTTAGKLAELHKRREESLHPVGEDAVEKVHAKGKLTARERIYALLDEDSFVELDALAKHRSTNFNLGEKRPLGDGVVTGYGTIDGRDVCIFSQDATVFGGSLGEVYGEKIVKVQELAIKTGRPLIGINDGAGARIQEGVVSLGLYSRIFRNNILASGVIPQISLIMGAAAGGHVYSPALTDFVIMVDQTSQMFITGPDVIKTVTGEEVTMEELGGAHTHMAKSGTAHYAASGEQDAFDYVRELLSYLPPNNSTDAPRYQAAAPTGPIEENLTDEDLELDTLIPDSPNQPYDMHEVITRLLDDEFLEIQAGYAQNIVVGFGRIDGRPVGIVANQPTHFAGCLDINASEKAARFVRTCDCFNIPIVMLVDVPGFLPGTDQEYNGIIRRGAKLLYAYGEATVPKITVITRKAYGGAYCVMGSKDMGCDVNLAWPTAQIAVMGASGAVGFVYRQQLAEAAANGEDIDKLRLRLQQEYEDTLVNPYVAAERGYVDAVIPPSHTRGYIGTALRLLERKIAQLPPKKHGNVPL", "type": "biochemical"}, "[2]": {"target": "T1, AccD6 (carboxyltransferase beta subunit of ACCase 6) (Mycobacterium tuberculosis, UniProt P9WQH5)", "T1 sequence (P9WQH5 1-473)": "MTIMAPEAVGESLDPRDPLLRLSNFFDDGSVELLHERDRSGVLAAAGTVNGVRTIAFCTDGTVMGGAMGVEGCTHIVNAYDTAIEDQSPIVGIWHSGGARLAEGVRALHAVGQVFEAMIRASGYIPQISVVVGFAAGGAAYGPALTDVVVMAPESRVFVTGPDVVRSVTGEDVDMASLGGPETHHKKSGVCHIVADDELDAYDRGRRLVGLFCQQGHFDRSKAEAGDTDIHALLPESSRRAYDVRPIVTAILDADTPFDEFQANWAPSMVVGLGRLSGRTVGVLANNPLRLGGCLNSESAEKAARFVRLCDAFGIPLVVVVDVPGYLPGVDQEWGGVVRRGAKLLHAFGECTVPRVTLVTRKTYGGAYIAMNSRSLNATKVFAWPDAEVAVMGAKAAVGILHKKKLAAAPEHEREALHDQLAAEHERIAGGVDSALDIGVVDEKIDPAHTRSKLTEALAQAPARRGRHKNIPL", "T1 sequence (P9WPQ3 1-654 partner)": "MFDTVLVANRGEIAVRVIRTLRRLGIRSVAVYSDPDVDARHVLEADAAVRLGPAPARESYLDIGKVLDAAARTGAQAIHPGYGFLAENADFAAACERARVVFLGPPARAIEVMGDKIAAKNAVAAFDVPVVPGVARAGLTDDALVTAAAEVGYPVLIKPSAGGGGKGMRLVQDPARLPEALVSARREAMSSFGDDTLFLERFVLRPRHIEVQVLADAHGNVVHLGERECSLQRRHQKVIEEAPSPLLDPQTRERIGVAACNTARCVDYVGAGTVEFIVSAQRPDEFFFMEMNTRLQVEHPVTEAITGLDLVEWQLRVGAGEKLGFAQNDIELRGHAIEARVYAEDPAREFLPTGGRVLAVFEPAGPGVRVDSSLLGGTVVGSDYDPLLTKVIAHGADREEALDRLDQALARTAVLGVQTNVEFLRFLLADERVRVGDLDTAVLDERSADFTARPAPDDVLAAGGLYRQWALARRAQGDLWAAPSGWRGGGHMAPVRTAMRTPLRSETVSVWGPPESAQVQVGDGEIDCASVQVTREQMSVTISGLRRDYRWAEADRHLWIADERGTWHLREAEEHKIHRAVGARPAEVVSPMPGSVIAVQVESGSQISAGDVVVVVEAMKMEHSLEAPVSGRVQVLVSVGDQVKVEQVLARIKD", "type": "biochemical"}}, "data": [{"compound": "Oc1c(Cl)cc(C(c2cc(Cl)c(O)c(Cl)c2)C(c2cc(Cl)c(O)c(Cl)c2)c2cc(Cl)c(O)c(Cl)c2)cc1Cl", "note": "[NCI-172033]", "values": [{"measurement": "IC50", "setting": "[1]", "value": 78, "unit": "µM"}, {"measurement": "IC50", "setting": "[2]", "value": "~8", "unit": "µM"}]}]}
